Series [1] concerns DLD-1 cells, PRL-3 over-expressed colorectal cancer cell line. The series is described as follows: Transwell cell invasion assay. Format: cell-based. Conditions: Homo sapiens; for inhibition at 1 µM: DLD-1, 1 μM (FIG. 5b); for inhibition at 1 µM / inhibition at 5 µM: compared to DMSO-treated control; for inhibition at 2 µM: DLD-1, 2 μM (FIG. 5b); for inhibition at 5 µM: DLD-1, 5 μM (FIG. 5a). The method, then:
(§1) To analyze inhibitory activity against the migration and invasion of (S)-(−)-benproperine cancer cells, a cell migration and invasion assay was caned out using DLD-1 cells (ATCC-CCL-221), a PRL-3 over-expressed colorectal cancer cell line, using a transwell as described below.
(§2) First, DLD-1 cells (ATCC-CCL-221) were allowed to grow to about 90% in a culturing plate containing an RPMI medium, then removed from the medium and washed with PBS. The washed cells were treated with trypsin-EDTA and cultured in a CO2 incubator at 37° C. for […] to detach the cells. Then an RPMI medium containing 10% FBS was added thereto, and the cells were collected in a Falcon tube and centrifuged to remove the medium. The thus-obtained cells were charged with an FBS-free RPMI medium and centrifuged to remove the medium, and these step were repeated twice. The thus-obtained cells were charged with an FBS-free RPMI medium and then suspended to measure the number of cells using a hemocytometer.
(§3) Thereafter, the transwell was placed on top of a 24-well plate and charged with cells of 8×10^4 cell/200 The transwell was charged with 500 μL of an FBS-free RPMI medium containing the (S)-(−)-benproperine, prepared in Example 1, through the gap, and cultured in a CO2 incubator at 37° C. for 12 hours to 16 hours. After culturing, the transwell was turned upside down on a hand towel to remove the medium, then each well of the 24-well plate was charged with 500 μL of crystal violet (5 mg/mL in 20% MeOH). The transwell was placed back on top of the 24-well plate and incubated in a CO2 incubator for 30 minutes. The stained transwell was washed with PBS and turned upside down on a hand towel to let the remaining solution infiltrate into the hand towel. A region where the cells had not moved was labeled as the top of a film by placing a cover slip on top of the film, and the cells that had not moved were wiped off with a cotton swab. A small amount of nail polish was applied to the edge of the cover slip, and a slide glass was placed on top to fix the cover slip. The thus-prepared sample was photographed using an inverted microscope (TE 300, Nikon, Japan) with a digital camera installed, and the number of migrated cells was calculated.
(§4) According to the Mathematical Formula 1 above, “the number of migrated cells in sample-treated group” refers to a number of migrated cells measured after treating DLD-1 with (S)-(−)-benproperine (S-Benp) prepared in Example 1, (R)-(+)-benproperine (R-Benp) prepared in Comparative Example 1, or a mixed racemate having a 1:1 weight ratio of (S)-(−)-benproperine to (R)-(+)-benproperine, and “the number of migrated cells in control group” refers to a number of migrated cells measured after treating DLD-1 with 1% dimethyl sulfoxide (DMSO) alone, instead of benproperine.

Series [2] shares this test system. The series can be described thus: Transwell cell migration assay. Format: cell-based, human. The note with it: for inhibition at 0.5 µM: DLD-1, 0.5 μM (FIG. 3b); for inhibition at 0.5 µM / inhibition at 5 µM: compared to DMSO-treated control; for inhibition at 5 µM: DLD-1, 5 μM (FIG. 3a). The method, then: as §1, §2, §3
Subsequently, cell migration inhibition was calculated via Mathematical Formula 1 shown below.
as §4

Series [3] concerns MCF10A cells. The series is described as follows: Transwell cell migration assay, normal cells. The class given is cell-based. Conditions: 10 μM (FIG. 4).
Series [4] concerns cancer cells (DLD-1, AsPc-1, B16-BL6). The series can be described thus: Cytotoxicity assay (WST-1). Format: cell-based. The note with it: 5 μM, 48 hours. How it is done:
(§5) To verify the cytotoxicity of (S)-(−)-benproperine, prepared in Example 1, DLD-1 cells (ATCC-CCL-221), a human colorectal cancer cell line, AsPc-1′ cells (ATCC-CRL-1682), a pancreatic cancer cell line, B16-BL6 cells (ATCC-CRL-6475), a melanoma cell line, and normal cells of MCF10A (ATCC-CRL-10317) were cultured in an RPM medium containing 10% fetal bovine serum (FBS) while maintaining a temperature at 37° C. and 5% CO2, and the cells were then detached from the medium using 0.05% trypsin-EDTA. Each well of a 96-well plate including the medium containing 10% FBS was inoculated with 410^3 cells, calculated with a hemocytometer, and the cells were cultured in an incubator containing 5% CO2 at 37° C.
(§6) After 24 hours, the medium of each well was replaced with a new medium containing a control group (0.1% DMSO) and 5 μM of benproperine, prepared in either of Example 1 or Comparative Example 1. The cells in the new media were then cultured in an incubator containing 5% CO2 at 37° C. for 48 hours. Each well was then charged with 10 μL of WST-1 (Roche), culturing was continued for 2 hours, and absorbance was measured at 450 nm by ELISA Reader (Bio-Rad).
A general note: Tetrazolium dyes change colour on reduction, which living cells bring about.

For series [5], the system named is normal cells of MCF10A. The series is described as follows: Cytotoxicity assay (WST-1). The class given is cell-based. Conditions: 5 μM, 48 hours. How it is done:
as §5, §6

Series [6] deals with SD type rats. The series can be described thus: Acute toxicity experiment of oral administration on rats. Conditions: rat, in vivo, po, 1000 mg/kg. How it is done:
(§7) 6-week-old specific pathogen free SD type rats were divided into groups, where each group contains two rats. The (S)-(−)-benproperine, prepared in Example 1, was dissolved in water for injection, and orally administered to each rat once at a volume of 1000 mg/kg.

Experiment in series [7]: as above
The note with it: SD, in vivo, 1000 mg/kg; rat, oral; read-out: minimum lethal oral dose (LD50). How it is done: as §7

The inhibition is the drop in the measured response relative to a control, in per cent. The low end stands for little suppression, the high end for strong suppression. Consider `CC(COc1ccccc1Cc1ccccc1)N1CCCCC1` (racemic) [racemate, 1-[1-(2-benzylphenoxy)propan-2-yl]piperidine, reference compound], for which, in series [1], testing at 1 µM gave an inhibition of 21%, testing at 2 µM gave an inhibition of 36% and testing at 5 µM gave an inhibition of 73%. In series [2] (Homo sapiens), testing at 0.5 µM gave an inhibition of 3% and the inhibition at 5 µM amounted to 71%. Further, the inhibition at 2 µM in series [2] (Homo sapiens, DLD-1, 2 μM (FIG. 3b)) amounted to 53%.

In series [1], `C[C@@H](COc1ccccc1Cc1ccccc1)N1CCCCC1` [(S)-(−)-benproperine] displayed an inhibition at 1 µM of 36%, an inhibition at 2 µM of 57% and an inhibition at 5 µM of 90%. Further, the “inhibitory activity against cell migration relative to the racemate” value in series [2] (DLD-1, 52% at 1 μM vs racemate 53% at 2 μM) is recorded as “twice as much inhibitory activity against the cell migration as the racemate”. In series [2] (Homo sapiens), the inhibition at 0.5 µM is 32% and the inhibition at 5 µM came out at 89%. In series [2] (Homo sapiens, DLD-1, 1 μM (FIG. 3b)), this molecule gave an inhibition at 1 µM of 52%. In series [3], the “inhibition of migration of normal cells” value is on record as “did not inhibit the migration”. Moreover, in series [4], the cytotoxicity entry is on record as “did not exhibit the cytotoxicity”. Further, in series [5], the cytotoxicity result was “did not exhibit the cytotoxicity”. Further, in series [6], the animal death result was “none died”; the clinical symptoms entry is “showed noteworthy clinical symptoms”; the “toxicity in weight fluctuation, hematological and blood biochemical examinations, post-mortem reports” value is reported as “nor showed any toxicity”. The highest tested oral dose (no deaths) in series [7] stood at 1000 mg/kg.

For the origin of these results see patent US20160095845A1, “COMPOSITION COMPRISING (S)-(-)-BENPROPERINE FOR PREVENTING OR TREATING CANCER” (KOREA RESEARCH INSTITUTE OF BIOSCIENCE AND BIOTECHNOLOGY, priority 2014, published 2016).
